In patent publication US10640534B2 (Agios Pharmaceuticals, Inc., priority 2012, dated 2020):

System: U87MG cells
Assay: Cellular assay, inhibition of 2-HG production in U87MG cells
Format: cell-based
Details: Homo sapiens, U-87 MG, 48 h
Procedure: Cells (HT1080 or U87MG) are grown in T125 flasks in DMEM containing 10% FBS, 1× penicillin/streptomycin and 500 ug/mL G418 (present in U87MG cells only). They are harvested by trypsin and seeded into 96 well white bottom plates at a density of 5000 cell/well in 100 ul/well in DMEM with 10% FBS. […] Cells are incubated overnight at 37° C. in 5% CO2. The next day test compounds are made up at 2× the final concentration and 100 ul are added to each cell well. The final concentration of DMSO is 0.2% and the DMSO control wells are plated in row G. The plates are then placed in the incubator for 48 hours. […] The cell plate is placed back in the incubator for another 24 hours. At 72 hours post compound addition, 10 mL/plate of Promega Cell Titer Glo reagent is thawed and mixed. The cell plate is removed from the incubator and allowed to equilibrate to room temperature. Then 100 ul of Promega Cell Titer Glo reagent is added to each well of media. The cell plate is then placed on an orbital shaker for 10 minutes and then allowed to sit at room temperature for 20 minutes. The plate is then read for luminescence with an integration time of 500 ms.

SMILES | IC50
N#Cc1ccnc(N2C(=O)CC[C@H]2C(=O)N(c2cccc(CO)c2)[C@H](C(=O)NC2CC(F)(F)C2)c2ccccc2Cl)c1 [Compound 131, (S)—N—((S)-1-(2-Chlorophenyl)-2-(3,3-difluorocyclobutylamino)-2-oxoethyl)-1-(4-cyanopyridin-2-yl)-N-(3-(hydroxymethyl)phenyl)-5-oxopyrrolidine-2-carboxamide] | < 100 nM
N#Cc1ccnc(N2C(=O)CC[C@H]2C(=O)N(c2cccc(C3CC3)c2)[C@H](C(=O)NC2CC(F)(F)C2)c2ccccc2Cl)n1 [Compound 182, (S)—N—((S)-1-(2-Chlorophenyl)-2-((3,3-difluorocyclobutyl)amino)-2-oxoethyl)-1-(4-cyanopyrimidin-2-yl)-N-(3-cyclopropylphenyl)-5-oxopyrrolidine-2-carboxamide] | < 100 nM
N#Cc1ccnc(N2C(=O)CC[C@H]2C(=O)N(c2cncc(F)c2)[C@H](C(=O)NC2CC(F)(F)C2)c2ccccc2)c1 [Compound 147, (S)-1-(4-Cyanopyridin-2-yl)-N—((S)-2-((3,3-difluorocyclobutyl)amino)-2-oxo-1-phenylethyl)-N-(5-fluoropyridin-3-yl)-5-oxopyrrolidine-2-carboxamide] | < 100 nM
N#Cc1ccnc(N2C(=O)OC[C@H]2C(=O)N(c2cncc(F)c2)[C@H](C(=O)NC2CC(F)(F)C2)c2ccccc2Cl)c1 [Compound 135, (S)—N—((S)-1-(2-Chlorophenyl)-2-((3,3-difluorocyclobutyl)amino)-2-oxoethyl)-3-(4-cyanopyridin-2-yl)-N-(5-fluoropyridin-3-yl)-2-oxooxazolidine-4-carboxamide] | < 100 nM
O=C(NC1CCC(F)(F)CC1)[C@H](c1ccccc1Cl)N(C(=O)[C@@H]1CCC(=O)N1c1cscn1)c1cccc(F)c1 [Compound 74] | < 100 nM
N#Cc1ccnc(N2C(=O)[C@H](O)C[C@H]2C(=O)N(c2cccc(F)c2)[C@H](C(=O)NC2CCC(F)(F)CC2)c2ccccc2Cl)n1 [Compound 123, (2S,4R)—N—((S)-1-(2-Chlorophenyl)-2-((4,4-difluorocyclohexyl)amino)-2-oxoethyl)-1-(4-cyanopyrimidin-2-yl)-N-(3-fluorophenyl)-4-hydroxy-5-oxopyrrolidine-2-carboxamide] | < 100 nM
O=C(NC1CC(F)(F)C1)[C@H](c1ccccc1Cl)N(C(=O)[C@@H]1CCC(=O)N1c1ncccn1)c1cccc(F)c1 [Compound 1] | 100 to 500 nM
N#Cc1ccnc(N2C(=O)CC[C@H]2C(=O)N(c2cccc(F)c2)[C@H](C(=O)NC2CC(F)(F)C2)c2ccccc2Cl)c1F [Compound 82, (S)—N—((S)-1-(2-Chlorophenyl)-2-((3,3-difluorocyclobutyl)amino)-2-oxoethyl)-1-(4-cyano-3-fluoropyridin-2-yl)-N-(3-fluorophenyl)-5-oxopyrrolidine-2-carboxamide] | < 100 nM
N#Cc1cccc(N(C(=O)[C@@H]2CCC(=O)N2c2nccc(C#N)n2)[C@H](C(=O)NC2CC(F)(F)C2)c2ccccc2Cl)c1 [Compound 167, (S)—N—((S)-1-(2-Chlorophenyl)-2-((3,3-difluorocyclobutyl)amino)-2-oxoethyl)-N-(3-cyanophenyl)-1-(4-cyanopyrimidin-2-yl)-5-oxopyrrolidine-2-carboxamide] | < 100 nM
N#Cc1ccnc(N2C(=O)CC[C@H]2C(=O)N(c2cc(F)ccc2F)[C@H](C(=O)NC2CC(F)(F)C2)c2ccccc2Cl)c1 [Compound 197, (S)—N—((S)-1-(2-Chlorophenyl)-2-((3,3-difluorocyclobutyl)amino)-2-oxoethyl)-1-(4-cyanopyridin-2-yl)-N-(2,5-difluorophenyl)-5-oxopyrrolidine-2-carboxamide] | < 100 nM
O=C(NC1CC(F)(F)C1)C(c1c(Cl)cccc1Cl)N(C(=O)[C@@H]1CCC(=O)N1c1ncccn1)c1cccc(F)c1 (stereo partly shown) [Compound 51] | 100 to 500 nM
N#Cc1ccnc(N2C(=O)CN(CCO)C[C@H]2C(=O)N(c2cc(F)cc(F)c2)[C@H](C(=O)NC2CC(F)(F)C2)c2ccccc2Cl)c1 [Compound 107, (S)—N—((S)-1-(2-chlorophenyl)-2-((3,3-difluorocyclobutyl)amino)-2-oxoethyl)-1-(4-cyanopyridin-2-yl)-N-(3,5-difluorophenyl)-4-(2-hydroxyethyl)-6-oxopiperazine-2-carboxamide] | < 100 nM
N#Cc1ccnc(N2C(=O)CC[C@H]2C(=O)N(c2cc(F)cc(F)c2)[C@H](C(=O)NC2CC(F)(F)C2)c2ccccc2Cl)c1F [Compound 88, (S)—N—((S)-1-(2-Chlorophenyl)-2-((3,3-difluorocyclobutyl)amino)-2-oxoethyl)-1-(4-cyano-3-fluoropyridin-2-yl)-N-(3,5-difluorophenyl)-5-oxopyrrolidine-2-carboxamide] | < 100 nM
CCOC(=O)CN1C[C@@H](C(=O)N(c2cccc(F)c2)C(C(=O)NC2CC(F)(F)C2)c2ccccc2Cl)N(c2nccc(C#N)n2)C1=O (stereo partly drawn) [Compound 111, Ethyl 2-((4S)-4-((1-(2-chlorophenyl)-2-((3,3-difluorocyclobutyl)amino)-2-oxoethyl)(3-fluorophenyl)carbamoyl)-3-(4-cyanopyrimidin-2-yl)-2-oxoimidazolidin-1-yl)acetate] | < 100 nM
O=C(NC1CCC(F)(F)CC1)[C@H](c1ccccc1Cl)N(C(=O)[C@@H]1CCC(=O)N1c1ncccn1)c1cccc(F)c1 [Compound 4, (S)—N—((S)-1-(2-chlorophenyl)-2-((4,4-difluorocyclohexyl)amino)-2-oxoethyl)-N-(3-fluorophenyl)-5-oxo-1-(pyrimidin-2-yl)pyrrolidine-2-carboxamide] | < 100 nM
CC(C)(C)OC(=O)N1CC(=O)N(c2nccc(C#N)n2)[C@H](C(=O)N(c2cc(F)cc(F)c2)[C@H](C(=O)NC2CC(F)(F)C2)c2ccccc2Cl)C1 [Compound 98, (3S)-tert-butyl 3-((1-(2-chlorophenyl)-2-((3,3-difluorocyclobutyl)amino)-2-oxoethyl)(3,5-difluorophenyl)carbamoyl)-4-(4-cyanopyrimidin-2-yl)-5-oxopiperazine-1-carboxylate] | < 100 nM
N#Cc1ccnc(N2C(=O)NC[C@H]2C(=O)N(c2cccc(F)c2)[C@H](C(=O)NC2CC(F)(F)C2)c2ccccc2Cl)c1 [Compound 80, (S)—N—((S)-1-(2-chlorophenyl)-2-(3,3-difluorocyclobutylamino)-2-oxoethyl)-3-(4-cyanopyridin-2-yl)-N-(3-fluorophenyl)-2-oxoimidazolidine-4-carboxamide] | < 100 nM
COc1cccc(N(C(=O)[C@@H]2CCC(=O)N2c2cc(C#N)ccn2)[C@H](C(=O)NC2CC(F)(F)C2)c2ccccc2Cl)c1 [Compound 129, (S)—N—((S)-1-(2C)-2-((3,3-difluorocyclobutyl)amino)-2-oxoethyl)-1-(4-cyanopyridin-2-yl)-N-(3-methoxyphenyl)-5-oxopyrrolidine-2-carboxamide] | < 100 nM
CN1C[C@@H](C(=O)N(c2cccc(F)c2)C(C(=O)NC2CC(F)(F)C2)c2ccccc2Cl)N(c2cc(C#N)ccn2)C1=O (stereo partly drawn) [Compound 79, (4S)—N-(1-(2-chlorophenyl)-2-((3,3-difluorocyclobutyl)amino)-2-oxoethyl)-3-(4-cyanopyridin-2-yl)-N-(3-fluorophenyl)-1-methyl-2-oxoimidazolidine-4-carboxamide] | < 100 nM
N#Cc1ccnc(N2C(=O)[C@@H](O)C[C@H]2C(=O)N(c2cccc(F)c2)[C@H](C(=O)NC2CCC(F)(F)CC2)c2ccccc2Cl)n1 [Compound 189, (2S,4S)—N—((S)-1-(2-Chlorophenyl)-2-((4,4-difluorocyclohexyl)amino)-2-oxoethyl)-1-(4-cyanopyrimidin-2-yl)-N-(3-fluorophenyl)-4-hydroxy-5-oxopyrrolidine-2-carboxamide] | < 100 nM
N#Cc1ccnc(N2C(=O)CNC[C@H]2C(=O)N(c2cc(F)cc(F)c2)[C@H](C(=O)NC2CC(F)(F)C2)c2ccccc2Cl)n1 [Compound 99, (S)—N—((S)-1-(2-chlorophenyl)-2-((3,3-difluorocyclobutyl)amino)-2-oxoethyl)-1-(4-cyanopyrimidin-2-yl)-N-(3,5-difluorophenyl)-6-oxopiperazine-2-carboxamide] | < 100 nM
O=C(NC1CC(F)(F)C1)C(c1ccccc1Cl)N(C(=O)[C@@H]1CCC(=O)N1c1ccccc1)c1cccc(F)c1 (stereo partly shown) [Compound 23] | 100 to 500 nM
N#Cc1ccnc(N2C(=O)[C@H](O)C[C@H]2C(=O)N(c2cc(F)cc(F)c2)[C@@H](C(=O)NC2CCC(F)(F)CC2)c2ccccc2Cl)c1 [Compound 124, (2S,4R)—N—((R)-1-(2-Chlorophenyl)-2-(4,4-difluorocyclohexylamino)-2-oxoethyl)-1-(4-cyanopyridin-2-yl)-N-(3,5-difluorophenyl)-4-hydroxy-5-oxopyrrolidine-2-carboxamide] | < 100 nM
N#Cc1cc(F)cc(N(C(=O)[C@@H]2CCC(=O)N2c2cc(C#N)ccn2)[C@H](C(=O)NC2CC(F)(F)C2)c2ccccc2F)c1 [Compound 207, (S)—N-(3-Cyano-5-fluorophenyl)-1-(4-cyanopyridin-2-yl)-N—((S)-2-((3,3-difluorocyclobutyl)amino)-1-(2-fluorophenyl)-2-oxoethyl)-5-oxopyrrolidine-2-carboxamide] | < 100 nM
CS(=O)(=O)c1cc(F)cc(N(C(=O)[C@@H]2CCC(=O)N2c2nccc(C#N)n2)C(C(=O)NC2CCC(F)(F)CC2)c2ccccc2Cl)c1 (stereo partly drawn) [Compound 108, (2S)—N-(1-(2-Chlorophenyl)-2-((4,4-difluorocyclohexyl)amino)-2-oxoethyl)-1-(4-cyanopyrimidin-2-yl)-N-(3-fluoro-5-(methylsulfonyl)phenyl)-5-oxopyrrolidine-2-carboxamide] | < 100 nM
